{"source": "patent US10294226B2", "about": "“Small molecule inhibitors of the JAK family of kinases” (Janssen Pharmaceutica NV, priority 2016, dated 2019)", "key": {"[1]": {"test": "In vivo oral (p.o.) dosing, plasma and colon concentrations (Protocols 1 and 2)", "set-up": "species or system female C57BL/6 mice", "details": "mice, 25 mg/kg p.o.", "experimental": "These protocols are described below under the heading In vivo Studies. Three non-fasted female C57BL/6 mice were orally administered test compound at a dose of 25 mg/kg p.o. as a solution in 20% hydroxypropyl-beta-cyclodextrin (HPβCD) at a dose volume of 5 mL/kg. Blood samples were collected at 0.5, 2, and 4 h post dose via retro-orbital bleed or venipuncture of the dorsal metatarsal vein. Blood samples were collected into tubes containing anticoagulant (Heparin-Na) and placed on wet ice. […] Colon samples were collected at 4 h post dose. […] The colon was further washed by putting it in 5 mL of saline and shaken for 5 seconds. The colon sample was then patted dry, weighed, and homogenized as 1 part tissue (g) to 4 parts HPLC grade water (mL). Concentrations of the compound in plasma and colon homogenate were determined using a qualified liquid chromatography-triple quadrupole mass spectrometry (LC-MS/MS) method. […] Three non-fasted female C57BL/6 mice were orally administered test compound at a dose of 25 mg/kg p.o. as a solution in 20% HPβCD at a dose volume of 5 mL/kg. Blood samples were collected at 0.5, 2, and 4 h post dose via retro-orbital bleed or dorsal metatarsal vein. Blood samples were collected into tubes containing anticoagulant (Heparin-Na) and placed on wet ice. […] Colon samples were collected at 4 h post dose. […] The colon was further washed by putting it in 5 mL of saline and shaken for 5 seconds. The colon sample was then patted dry, weighed, and homogenized as 1 part tissue (g) to 4 parts HPLC grade water (mL). Concentrations of the compound in plasma and colon homogenate were determined using a qualified liquid chromatography-triple quadrupole mass spectrometry (LC-MS/MS) method."}, "JAK1-JH1JH2": {"molecular_target": "JAK1-JH1JH2 (Homo sapiens (Human), UniProt P23458)", "sequence (P23458 574-1154)": "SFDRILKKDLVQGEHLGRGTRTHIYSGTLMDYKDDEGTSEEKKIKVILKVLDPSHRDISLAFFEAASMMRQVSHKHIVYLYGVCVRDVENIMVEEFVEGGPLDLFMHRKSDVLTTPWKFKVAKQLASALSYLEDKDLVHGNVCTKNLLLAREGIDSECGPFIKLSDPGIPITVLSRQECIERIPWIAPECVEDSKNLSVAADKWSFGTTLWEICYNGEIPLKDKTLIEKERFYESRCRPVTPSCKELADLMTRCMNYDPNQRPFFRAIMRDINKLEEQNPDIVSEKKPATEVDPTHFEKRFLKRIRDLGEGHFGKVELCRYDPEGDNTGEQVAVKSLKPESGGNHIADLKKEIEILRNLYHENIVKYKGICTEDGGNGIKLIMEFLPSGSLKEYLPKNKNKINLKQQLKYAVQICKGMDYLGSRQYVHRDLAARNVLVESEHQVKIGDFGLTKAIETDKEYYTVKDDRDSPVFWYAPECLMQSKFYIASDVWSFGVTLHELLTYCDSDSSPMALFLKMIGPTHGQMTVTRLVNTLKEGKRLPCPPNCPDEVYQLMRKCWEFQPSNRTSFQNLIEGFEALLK", "test": "Enzymatic inhibition assay (HTMS)", "assay_type": "biochemical", "excerpt": "(§1) JAK1-JH1JH2 (574-1154 with a His-GST Tag and a C-terminal tev (ENLYFQ-G) cleavage site), JAK3-JH1JH2 (512-1124 with a GST Tag and a C-terminal tev (ENLYFQ-G) cleavage site), and Tyk2-JH1JH2 (8H_tev_580-1182-C936A-C1142A with a C-terminal tev (ENLYFQ-G) cleavage site) were purified internally. […] LC/MS grade water and acetonitrile (ACN), were purchased from HoneyWell, Burdick & Jackson (Muskegon, Mich., USA). Dimethylsulfoxide 99.8% (DMSO) and trifluoroacetic acid 99.5% (TFA) were purchased from EMD Chemical (Gibbstown, N.J., USA). Adenosine triphosphate (ATP), 4-morpholinepropanesulfonic acid (MOPS), magnesium chloride (MgCl2), ethylenediaminetetraacetic acid (EDTA), dithiothreitol (DTT), formic acid>95% (FA) and Tween-20 were purchased from Sigma (St Louis, Mo., USA). 384-well polypropylene plates, Cat#781280 were purchased from Greiner (Monroe, N.C.), RapidFire™ cartridge A C4 Column (Agilent Technologies, Santa Clara, Calif.).\n(§2) The HTMS experiments were performed in positive ionization mode on a RapidFire 300 instrument (Agilent Technologies, Santa Clara, Calif.), coupled with an ABSiex QTrap 4000 system with an Electrospray Ionization source (RF-MS) (Concord, ON, Canada). […] The entire system was operated using the RapidFire software interfaced with Analyst software for the mass spectrometer.\n(§3) 11-point dosing series were made for each compound by serially diluting 1:3 or 1:4 in DMSO, with point 12 being a DMSO control. From the serial dilution plates, sample was transferred to a 384 wells assay plate (#781280, Greiner, Monroe, N.C.) using Labcyte Echo (Sunnyvale, Calif.), or Biosero ATS (San Diego, Calif.). The compounds were tested in duplicate. Column 12 was used for positive controls, and column 24 contained negative controls with no enzyme added. A compound from our internal collection, with inhibitory activity for JAK isoforms, was used as a reference compound. The final concentration of DMSO was ≤0.25% in a 20 μL reaction. The enzyme reaction was initiated by the addition of 10 μL of enzyme and ATP mixture to 10 μL of substrate solution prepared in reaction buffer (50 mM MOPS pH 7.5, 10 mM MgCl2, 1 mM EDTA, 2 mM DTT, 0.002% Tween-20). The Tyk2 enzyme was pre-incubated with 2 mM ATP for 30 min prior to the reaction initiation. Immediately after the addition of the enzyme to the reaction mixture, the plate was centrifuged at 1000 rpm for 1 minute and incubated at 25° C. for 45 minutes for JAK3 and 90 minutes for JAK1, JAK2 and Tyk2. The reaction was quenched by the addition of 20 μL of 0.5% TFA containing 0.15 μM of internal standard peptide using Multidrop Combi reagent dispenser (Thermo Scientific, Waltham, Mass.). […] After the quench, the assay plate was centrifuged at 3000 rpm for 3 minutes and sealed with pierceable aluminum foil (Cat#06644-001, Agilent) using a PlateLoc (Agilent Technologies, Santa Clara, Calif.). The plates then were transferred on to the RapidFire for the MS analysis. Compound inhibition was assessed by a decrease of the phosphorylated product levels in sample wells compared to the non-inhibited enzyme reaction.\n(§4) The sample analysis on the RapidFire was performed using a mobile phase A1 consisting of Water/TFA/FA (100:0.01:0.1, v/v/v), a mobile phase B1 consisting of ACN/Water/TFA/FA (80:20:0.01:0.1, v/v/v). […] The samples were aspirated directly from the 384-well assay plate and delivered onto RF-MS microscale solid-phase C4 extraction cartridge (Type A). The undesired component such as salt, cofactor, detergent and large protein were washed out and the retained analytes (substrate, product and IS) were coeluted directly onto the AB Siex Qtrap 4000 system."}, "JAK2-JH1JH2": {"molecular_target": "JAK2-JH1JH2 (Homo sapiens (Human), UniProt O60674)", "test": "Enzymatic inhibition assay (HTMS)", "assay_type": "biochemical", "details": "read-out: JAK2_I_JH1JH2 IC50", "excerpt": "as §1, §2, §3, §4"}, "JAK3-JH1JH2": {"molecular_target": "JAK3-JH1JH2 (Homo sapiens (Human), UniProt P52333)", "sequence (P52333 512-1124)": "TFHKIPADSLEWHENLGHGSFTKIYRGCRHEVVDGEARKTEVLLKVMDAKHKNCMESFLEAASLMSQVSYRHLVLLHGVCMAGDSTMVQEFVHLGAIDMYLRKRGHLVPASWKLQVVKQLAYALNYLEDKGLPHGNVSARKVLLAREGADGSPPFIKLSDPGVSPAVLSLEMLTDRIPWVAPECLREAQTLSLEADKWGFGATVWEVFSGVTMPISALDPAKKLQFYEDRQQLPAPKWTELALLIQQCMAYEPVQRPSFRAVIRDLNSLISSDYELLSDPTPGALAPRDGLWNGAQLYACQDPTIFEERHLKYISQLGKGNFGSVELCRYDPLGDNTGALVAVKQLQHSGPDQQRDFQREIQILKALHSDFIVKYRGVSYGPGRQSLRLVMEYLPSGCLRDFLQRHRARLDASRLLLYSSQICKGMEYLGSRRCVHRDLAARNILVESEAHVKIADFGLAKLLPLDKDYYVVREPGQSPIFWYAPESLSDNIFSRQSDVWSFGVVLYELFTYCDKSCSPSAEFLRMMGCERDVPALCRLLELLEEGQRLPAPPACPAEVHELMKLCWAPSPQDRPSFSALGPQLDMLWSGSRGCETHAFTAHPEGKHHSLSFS", "test": "Enzymatic inhibition assay (HTMS)", "assay_type": "biochemical", "details": "150 μM ATP; read-out: JAK3_I_JH1JH2 IC50", "excerpt": "as §1, §2, §3, §4"}, "Tyk2-JH1JH2": {"molecular_target": "Tyk2-JH1JH2 (Homo sapiens (Human), UniProt P29597, C1142A/C936A)", "sequence (P29597 580-1182 C936A/C1142A)": "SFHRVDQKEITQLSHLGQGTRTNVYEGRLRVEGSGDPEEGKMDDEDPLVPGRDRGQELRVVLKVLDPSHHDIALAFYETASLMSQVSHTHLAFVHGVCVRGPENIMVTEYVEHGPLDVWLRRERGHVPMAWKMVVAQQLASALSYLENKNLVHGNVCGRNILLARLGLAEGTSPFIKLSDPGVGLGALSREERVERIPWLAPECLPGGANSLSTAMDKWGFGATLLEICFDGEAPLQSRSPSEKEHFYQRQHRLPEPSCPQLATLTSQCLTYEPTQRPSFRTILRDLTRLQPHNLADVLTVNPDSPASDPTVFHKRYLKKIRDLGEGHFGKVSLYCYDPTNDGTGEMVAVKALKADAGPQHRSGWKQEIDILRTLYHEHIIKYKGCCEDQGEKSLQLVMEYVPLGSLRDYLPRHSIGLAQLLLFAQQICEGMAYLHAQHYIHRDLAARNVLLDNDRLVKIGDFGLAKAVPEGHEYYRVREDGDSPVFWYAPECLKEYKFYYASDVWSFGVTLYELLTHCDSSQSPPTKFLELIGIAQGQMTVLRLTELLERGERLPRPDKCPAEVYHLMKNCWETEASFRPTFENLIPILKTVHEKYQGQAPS", "test": "Enzymatic inhibition assay (HTMS)", "assay_type": "biochemical", "details": "read-out: Tyk2_I_JH1JH2 IC50", "excerpt": "as §1, §2, §3, §4"}, "MDCK-MDR1 cell line": {"test_system": "MDCK-MDR1 cell line", "test": "MDCK-MDR1 permeability assay", "assay_type": "in vitro ADME", "details": "@ 5 μM, apical to basolateral, with P-gp inhibitor elacridar (2 μM)"}, "P-gp (MDR1)": {"test_system": "P-gp (MDR1)", "test": "MDCK-MDR1 permeability assay", "assay_type": "in vitro ADME", "details": "dog"}, "physchem": {"test": "physchem", "details": "thermodynamic from solid"}, "[2]": {"test": "Polymorph screening, physical stability of crystalline embodiments of compound Ex. 1", "assay_type": "physicochemical", "details": "for physical stability of solid form after AAC: 2 days at 40° C./70% RH, HT-XRPD; for physical stability of solid form: ambient conditions; for physical stability of solid form in climate chamber: four days, HR-XRPD", "experimental": "Long term slurry experiments were performed by suspending compound embodiment 1s in twenty neat solvents and stirred at room temperature for two weeks and at 50° C. for one week. Upon completion of the equilibration time, the residual solids were separated from the mother liquors. The solids were dried under ambient conditions and dried under vacuum (5 mBar) before being analyzed by HT-XRPD. Subsequently, the solids were exposed to accelerated aging conditions (40° C./70% relative humidity) for two days and again analyzed by HT-XRPD.\nEmbodiment 1s converted to hydrated embodiment 10 when it was exposed to 100% RH at 25° C. […] This behavior is attributable to an unequally strong binding of all the hydration/solvation molecules. In this case, embodiment 10 would have a less strongly bound second water molecule that would be lost under ambient conditions. More precisely, the physical stability of embodiment 1s was investigated in climate chambers by exposing a 20 mg sample of such embodiment to 40° C. and 70% relative humidity for four days, and another 20 mg sample of the same embodiment was exposed also for four days to 25° C. and 100% relative humidity. After four days, the various solid samples were analyzed by HR-XRPD, the crystal cell parameters were determined and the diffractograms were indexed. From bottom to top, the first diffractogram in FIG. 6 corresponds to embodiment 1s as starting material, and the second corresponds to the same form after a 4-day exposure to 40° C. and 70% relative humidity, noted as “1s 70 RH” in the same figure. […] Indexing for such form was not possible due to the small amount in which it was present. The third diffractogram corresponds to embodiment 1s after a 4-day exposure to 25° C. and 100% relative humidity, noted as “10” in the same figure. […] Upon dehydration, both embodiments 1s and 10 re-crystallized to the anhydrous form with a melting point of 148° C.\nThe mother liquors of the solvent equilibration experiments performed at 50° C. were filtered at 50° C. to remove any particulate matter. The suspensions at 50° C. were filtered using 0.2 μm PTFE filters, and the solutions were placed at 5° C. and aged for 72 hours. When solids had precipitated during aging these solids were separated from the liquid, dried under ambient conditions and under vacuum, and analyzed by HT-XRPD. The remaining mother liquors were allowed to slowly evaporate and the remaining solids were analyzed by HT-XRPD. The samples in which no precipitation occurred were placed under vacuum and the dried solids were analyzed by HT-XRPD. All the solids were then exposed to AAC (2 days at 40° C./70% RH) and re-analyzed by HT-XRPD.\nThe cooling/evaporative crystallization experiments at μL scale were performed in a 96-well plate, using 12 neat solvents and 12 solvent mixtures and applying four temperature profiles. In each well approximately 4 mg of embodiment 1s was solid dosed. Subsequently, the crystallization solvents (80 μL) and solvent mixtures were added to reach a concentration of 50 mg/mL, and the plate, with each well individually sealed, to subsequently undergo one of the four temperature profiles. Upon completion of the temperature profile the solvents were allowed to evaporate at low ambient pressure (24 hours) and the remaining solids were analyzed by HT-XRPD before and after exposure to AAC for 2 days (40° C./70% RH).\nThe cooling crystallization experiments with hot filtration were performed from supersaturated solutions of compound Ex. 1 prepared at 50° C. in different solvent mixtures. The hot filtrated solutions underwent a 48-hour cooling profile. The vials in which solids had precipitated after the temperature profile were centrifuged and the solids were separated from the liquid and analyzed by HT-XRPD (after drying under vacuum). If no solids had precipitated the solutions were evaporated under vacuum and the solids analyzed by HT-XRPD. […]"}}}
{"smiles": "C[C@@H](O)c1nc2cnc3[nH]ccc3c2n1[C@H]1CC[C@H](CC#N)CC1", "note": "[C, reference compound]", "values": [{"measurement": "Plasma Concentration After p.o. Dosing, Mean", "setting": "[1]; Time = 0.5 h", "value": "[…]"}, {"measurement": "Plasma Concentration After p.o. Dosing, Mean", "setting": "[1]; Time = 2 h", "value": "[…]"}, {"measurement": "Colon Concentration After p.o. Dosing, Mean", "setting": "[1]; Time = 4 h", "value": "[…]"}, {"measurement": "Plasma Concentration After p.o. Dosing, Mean", "setting": "[1]; Time = 4 h", "value": "[…]"}, {"measurement": "IC50", "setting": "JAK1-JH1JH2", "value": "< 0.2", "unit": "nM"}, {"measurement": "IC50", "setting": "JAK2-JH1JH2", "value": "[…]"}, {"measurement": "IC50", "setting": "JAK3-JH1JH2", "value": 49.7, "unit": "nM"}, {"measurement": "IC50", "setting": "Tyk2-JH1JH2", "value": 0.2, "unit": "nM"}, {"measurement": "MDCK-MDR1 P^eapp(A-B)", "setting": "MDCK-MDR1 cell line", "value": "2.5 10^−6 cm/sec"}, {"measurement": "Papp A→B at 60 min, 5 μM", "setting": "P-gp (MDR1); MDCK-MDR1, pH 7.4, @ 5 μM, apical to basolateral, without elacridar, read-out: MDCK-MDR1 Papp(A-B)", "value": 0.5, "unit": "×10⁻⁶ cm/s"}, {"measurement": "Papp B→A at 60 min, 5 μM", "setting": "P-gp (MDR1); MDCK-MDR1, pH 7.4, @ 5 μM, basolateral to apical", "value": 23.1, "unit": "×10⁻⁶ cm/s"}, {"measurement": "solubility", "setting": "physchem; pH 6.5, fassif", "value": "> 400", "unit": "µM"}, {"measurement": "solubility", "setting": "physchem; simulated gastric fluid", "value": "> 400", "unit": "µM"}]}
{"smiles": "CC(C)(O)CNC(=O)Cc1nc2cnc3[nH]ccc3c2n1[C@H]1CC[C@H](CC#N)CC1", "note": "[Embodiment 5]", "values": [{"measurement": "physical stability of solid form after AAC", "setting": "[2]", "value": "physically unstable"}]}
{"smiles": "CC(C)(O)CNC(=O)Cc1nc2cnc3[nH]ccc3c2n1[C@H]1CC[C@H](CC#N)CC1", "note": "[Embodiment 4]", "values": [{"measurement": "physical stability of solid form", "setting": "[2]", "value": "did not appear to be physically stable"}]}
{"smiles": "CC(C)(O)CNC(=O)Cc1nc2cnc3[nH]ccc3c2n1[C@H]1CC[C@H](CC#N)CC1", "note": "[embodiment 1s]", "values": [{"measurement": "physical stability of solid form in climate chamber", "setting": "[2]; 25° C. and 100% relative humidity", "value": "conversion of embodiment 1s into embodiment 10"}, {"measurement": "physical stability of solid form in climate chamber", "setting": "[2]; 40° C. and 70% relative humidity", "value": "initial embodiment 1s had been recovered"}]}
{"smiles": "CC(C)(O)CNC(=O)Cc1nc2cnc3[nH]ccc3c2n1[C@H]1CC[C@H](CC#N)CC1", "note": "[embodiment 10]", "values": [{"measurement": "physical stability of solid form", "setting": "[2]", "value": "physically not stable"}]}
{"smiles": "CC(C)(O)CNC(=O)Cc1nc2cnc3[nH]ccc3c2n1[C@H]1CC[C@H](CC#N)CC1", "note": "[Embodiment 7]", "values": [{"measurement": "physical stability of solid form after AAC", "setting": "[2]", "value": "physically stable"}]}
{"smiles": "CC(C)(O)CNC(=O)Cc1nc2cnc3[nH]ccc3c2n1[C@H]1CC[C@H](CC#N)CC1", "note": "[Embodiment 6]", "values": [{"measurement": "physical stability of solid form after AAC", "setting": "[2]", "value": "stable solid form"}]}
{"smiles": "CC(C)(O)CNC(=O)Cc1nc2cnc3[nH]ccc3c2n1[C@H]1CC[C@H](CC#N)CC1", "note": "[embodiment 2]", "values": [{"measurement": "physical stability of solid form after AAC", "setting": "[2]", "value": "converted to embodiment 3e"}]}
